From patent US20210078972A1, “QUINOLINE OR QUINAZOLINE COMPOUND AND APPLICATION THEREOF” (HAIHE BIOPHARMA CO., LTD., priority 2018, published 2021)

system: MV4-11 cells; assay: MV4-11 cell proliferation, CCK-8; type: cell-based; conditions: Homo sapiens, 72 h, read-out: IC50 of inhibition of proliferation of MV4-11 cells
Protocol: The inhibitory effects of the compounds on the proliferation of MV4-11 cells were detected by a CCK-8 cell counting kit (Dojindo). The specific steps are as follows: MV4-11 cells in the logarithmic phase were seeded into a 96-well culture plate at a suitable density for 90 μL per well. After overnight cultivation, the compounds at different concentrations were added to act for 72 hr, and a solvent control group was set (negative control). After 72 h of the compounds acting on the cells, the effects of the compounds on cell proliferation were detected using the CCK-8 cell counting kit (Dojindo). 10 μL of CCK-8 reagent was added to each well and the plate was placed in an incubator at 37° C. for 2-4 hours. After that, a full-wavelength microplate enzyme-labeling instrument SpectraMax 190 was used to read with a measurement wavelength of 450 nm.
The inhibition rate (%) of the compound on tumor cell growth was calculated by the following formula:
Inhibition rate (%)=(OD control well−OD administration well)/OD control well×100%
The IC50 values were obtained by regression with the four-parameter method using the software attached to the enzyme-labeling instrument.

Row | Compound | IC50
1 | CC(C)(C)c1cc(NC(=O)Nc2ccc(-c3cn4c(n3)sc3cc(OCCN5CCOCC5)ccc34)cc2)no1 [AC220, reference compound] | < 4 nM

biological target: T1, AXL kinase (Homo sapiens, UniProt P30530); assay: AXL kinase inhibition, Z'-LYTE FRET; type: biochemical; conditions: ATP 50 μM
T1 construct: purchased eurofins 14-500
T1 sequence (P30530 473-894 limits assumed): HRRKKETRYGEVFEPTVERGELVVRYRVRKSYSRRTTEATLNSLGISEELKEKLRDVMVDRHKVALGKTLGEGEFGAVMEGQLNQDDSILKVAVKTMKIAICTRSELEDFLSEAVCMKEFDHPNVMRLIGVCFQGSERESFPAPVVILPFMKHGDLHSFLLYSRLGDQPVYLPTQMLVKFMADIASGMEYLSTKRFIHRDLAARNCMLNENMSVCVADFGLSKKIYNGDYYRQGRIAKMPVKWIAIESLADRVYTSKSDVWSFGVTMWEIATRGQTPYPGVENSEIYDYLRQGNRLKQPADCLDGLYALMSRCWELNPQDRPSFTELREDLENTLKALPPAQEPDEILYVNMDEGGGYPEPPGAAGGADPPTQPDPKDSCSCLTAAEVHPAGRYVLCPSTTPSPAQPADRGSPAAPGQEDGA
Excerpt: Detection of the activity of kinase: the inhibitory activities of the compounds against AXL kinase (eurofins, 14-500) were detected through a second-order reaction by the Z′-LYTE™ technology (detected by fluorescence, enzyme-coupled form, based on the difference in a sensitivity of phosphorylated and non-phosphorylated polypeptides to proteolytic cleavage), based on the principle of fluorescence resonance energy transfer (FRET), using Z′-LYTE™ FRET peptide substrate (Z′-LYTE™ Tyrosine 6 Peptide Substrate, Invitrogen, PV4122).
Enzymatic reaction: To a 384-well plate was added 5 μL of enzyme-substrate system (50 mM HEPES, pH 6.5, 0.01% BRU-35, 10 mM MgC2, 1 mM EGTA, 0.02% NaNA), and 5 nL of a compound (concentration gradient) was transferred thereto using an echo520 ultramicro-liquid pipetting system. After the plate was shaken at room temperature for 10-20 min, 25 nL of ATP (a final concentration of 50 μM) was transferred thereto using the echo520 ultramicro-liquid pipetting system. After shaking and well mixing, the mixture was centrifuged and reacted at 30° C. in the dark for 1.5 h.
The data analysis method is as follows:
Phosphorylation ratio=1−{(emission ratio×F100%−C100%)/[C0%−C100%+emission ratio×(F100%−F0%)]}×100;
Inhibition rate=100×(1−compound phosphorylation ratio/negative control phosphorylation ratio).
The IC50 values were calculated by GraphPad Prism software.

Row | Compound | IC50
2 | COc1cc2c(Oc3ccc(NC(=O)c4c(C)n(C)c5ccc(OC(F)(F)F)cc5c4=O)cc3F)ncnc2cc1OCCCN1CCCCC1 [TL-216, N-(3-fluoro-4-((6-methoxy-7-(3-(piperidin-1-yl)propoxy)quinazolin-4-yl)oxy)phenyl)-1,2-dimethyl-4-oxo-6-(trifluoromethoxy)-1,4-dihydroquinoline-3-carboxamide] | 1.5 nM
3 | COCCCOc1cc2ncnc(Oc3ccc(NC(=O)c4c(C)n(C)c5ccc(OC(F)(F)F)cc5c4=O)cc3F)c2cc1OC [TL-226, N-(3-fluoro-4-((6-methoxy-7-(3-methoxypropoxy)quinazolin-4-yl)oxy)phenyl)-1,2-dimethyl-4-oxo-6-(trifluoromethoxy)-1,4-dihydroquinoline-3-carboxamide] | 4.7 nM
4 | COc1cc2c(Oc3ccc(NC(=O)c4c(C)n(C)c5ccc(OC(F)(F)F)cc5c4=O)cc3F)ncnc2cc1OCCC(C)C [TL-230, N-(3-fluoro-4-((7-(isopentyloxy)-6-methoxyquinazolin-4-yl)oxy)phenyl)-1,2-dimethyl-4-oxo-6-(trifluoromethoxy)-1,4-dihydroquinoline-3-carboxamide] | 59.4 nM
5 | COc1cc2c(Oc3ccc(NC(=O)c4c(C)n(C)c5ccc(OC(F)(F)F)cc5c4=O)cc3F)ncnc2cc1OCCN1CCCC1 [TL-231, N-(3-fluoro-4-((6-methoxy-7-(2-(pyrrolidin-1-yl)ethoxy)quinazolin-4-yl)oxy)phenyl)-1,2-dimethyl-4-oxo-6-(trifluoromethoxy)-1,4-dihydroquinoline-3-carboxamide] | 2.3 nM
6 | COc1cc2c(Oc3ccc(NC(=O)c4c(C)n(C)c5ccc(OC(F)(F)F)cc5c4=O)cc3F)ncnc2cc1OCCN(C)C [TL-233, N-(4-((7-(2-(dimethylamino)ethoxy)-6-methoxyquinazolin-4-yl)oxy)-3-fluorophenyl)-1,2-dimethyl-4-oxo-6-(trifluoromethoxy)-1,4-dihydroquinoline-3-carboxamide] | 1.9 nM
7 | COc1cc2ncnc(Oc3ccc(NC(=O)c4c(C)n(C)c5ccc(OC(F)(F)F)cc5c4=O)cc3F)c2cc1OCCCN1CCOCC1 [TL-236, N-(3-fluoro-4-((7-methoxy-6-(3-morpholinopropoxy)quinazolin-4-yl)oxy)phenyl)-1,2-dim ethyl-4-oxo-6-(trifluoromethoxy)-1,4-dihydroquinoline-3-carboxamide] | 2.4 nM
8 | COc1cc2c(Oc3ccc(NC(=O)c4c(C)n(C)c5ccc(OC(F)(F)F)cc5c4=O)cc3F)ncnc2cc1OCCCN1CCN(C)CC1 [TL-238] | 1.2 nM
9 | CCCOc1cc2ncnc(Oc3ccc(NC(=O)c4c(C)n(C)c5ccc(OC(F)(F)F)cc5c4=O)cc3F)c2cc1OC [TL-240, N-(3-fluoro-4-((6-methoxy-7-propoxyquinazolin-4-yl)oxy)phenyl)-1,2-dimethyl-4-oxo-6-(trifluoromethoxy)-1,4-dihydroquinoline-3-carboxamide] | 6.1 nM
10 | CCOc1cc2ncnc(Oc3ccc(NC(=O)c4c(C)n(C)c5ccc(OC(F)(F)F)cc5c4=O)cc3F)c2cc1OC [TL-241, N-(4-((7-ethoxy-6-methoxyquinazolin-4-yl)oxy)-3-fluorophenyl)-1,2-dimethyl-4-oxo-6-(trifluoromethoxy)-1,4-dihydroquinoline-3-carboxamide] | 2.6 nM
